From patent US9499550B2 (BRISTOL-MYERS SQUIBB COMPANY, priority 2012, dated 2016)
Read-outs that look alike come from different tables or passages of the source.

Tests used:
[1] = system: HCV genotype 1b (Con1) replicon in HUH-7 cells; experiment: HCV replicon luciferase reporter assay, genotype 1b; type: cell-based; details: Hepatitis C virus, Huh-7, 72 h, 3 days incubation
Summary of the method: (§1)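 Replicon inhibition for both genotypes was measured as Renilla luciferase signal (EnduRen, 7.5 μM final, 2 h) after 3-day, 37° C exposure of replicon-bearing HUH-7 cells in 4% FCS DMEM, 0.5% DMSO. The 1b construct carries S1179I; the 1a H77 construct carries P1496L and S2204I. Twenty-point, 3-fold dilutions were fitted four-parametrically for EC50, and CC50 was taken from multiplexed Cell Titer-Blue.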

[2] = system: HCV genotype 1a (H77 strain) replicon in HUH-7 cells; experiment: HCV replicon luciferase reporter assay, genotype 1a; type: cell-based; details: Hepatitis C virus, Huh-7, 72 h, 3 days incubation
Summary of the method: as §1

[3] = HCV genotype 1b replicon luciferase assay, range class, read-out: LE_1b (EC50, range)
[4] = HCV genotype 1a replicon luciferase assay, range class, read-out: LE_1a (EC50, range)
[5] = HCV genotype 1b replicon luciferase, read-out: LE_1b (EC50, range)
[6] = HCV genotype 1a replicon luciferase, read-out: LE_1a (EC50, range)

| SMILES | EC50 [1, 3] [nM] | EC50 [2, 4] [nM] | EC50 [1, 5] [nM] | EC50 [2, 6] [nM] | further results |
| --- | --- | --- | --- | --- | --- |
| COc1ccc2c(O[C@@H]3C[C@H]4C(=O)N[C@]5(C(=O)NS(=O)(=O)C6CC6)C[C@H]5/C=C\CC[C@H](C)C[C@@H](C)[C@H](NC(=O)OC(C)(C)C)C(=O)N4C3)nc(-c3ccc(F)cc3)cc2c1 [Compound 3041, tert-butyl ((2R,6S,7R,9S,13aS,14aR,16aS,Z)-14a-((cyclopropylsulfonyl)carbamoyl)-2-((3-(4-fluorophenyl)-6-methoxyisoquinolin-1-yl)oxy)-7,9-dimethyl-5,16-dioxo-1,2,3,5,6,7,8,9,10,11,13a,14,14a,15,16,16a-hexadecahydrocyclopropa[e]pyrrolo[1,2-a][1,4]diazacyclopentadecin-6-yl)carbamate] | < 5.46 | < 5.46 | – | – | – |
| COc1cc2ccnc(O[C@@H]3C[C@H]4C(=O)N[C@]5(C(=O)NS(=O)(=O)C6(CF)CC6)C[C@H]5/C=C\CC[C@@H](C)C[C@@H](C)[C@H](NC(=O)OC5(C(F)(F)F)CCCCO5)C(=O)N4C3)c2cc1F (some centres unmarked) [Compound 1190] | – | – | – | – | EC50 ([1]; GETYPE1B, HCV genotype 1b replicon luciferase, read-out: LE_1b (EC50)): 1.12 nM; EC50 ([1]; GETYPE1B, HCV genotype 1b replicon luciferase, read-out: LE_1b (EC50, range)): 1.01 to 5 nM; EC50 ([2]; GETYPE1A, HCV genotype 1a replicon luciferase, read-out: LE_1a (EC50)): 1.66 nM; EC50 ([2]; GETYPE1A, HCV genotype 1a replicon luciferase, read-out: LE_1a (EC50, range)): 1.01 to 5 nM |
| COc1cc2cc(-c3ccc(OC(C)C)cc3)nc(O[C@@H]3C[C@H]4C(=O)N[C@]5(C(=O)NS(=O)(=O)C6(C)CC6)C[C@H]5/C=C\CC[C@H](C)C[C@@H](C)[C@H](NC(=O)O[C@@H]5C[C@@H]6C[C@@H]6C5)C(=O)N4C3)c2cc1F [Compound 3191, (1R,3r,5S)-bicyclo[3.1.0]hexan-3-yl((2R,6S,7R,9S,13aS,14aR,16aS,Z)-2-((7-fluoro-3-(4-isopropoxyphenyl)-6-methoxyisoquinolin-1-yl)oxy)-7,9-dimethyl-14a-(((1-methylcyclopropyl)sulfonyl)carbamoyl)-5,16-dioxo-1,2,3,5,6,7,8,9,10,11,13a,14,14a,15,16,16a-hexadecahydrocyclopropa[e]pyrrolo[1,2-a][1,4]diazacyclopentadecin-6-yl)carbamate] | – | – | < 5.46 | 4.82 to 103 | – |
| CC[C@@H]1C[C@H](C)CC/C=C\[C@@H]2C[C@@]2(C(=O)NS(=O)(=O)C2(C)CC2)NC(=O)[C@@H]2C[C@@H](Oc3nc4c(c5ccccc35)CCCO4)CN2C(=O)[C@H]1NC(=O)OC(C)(C)C [Compound 6064, tert-butyl ((2R,6S,7R,9R,13aS,14aR,16aS,Z)-2-((2,3-dihydro-1H-pyrano[2,3-c]isoquinolin-6-yl)oxy)-7-ethyl-9-methyl-14a-(((1-methylcyclopropyl)sulfonyl)carbamoyl)-5,16-dioxo-1,2,3,5,6,7,8,9,10,11,13a,14,14a,15,16,16a-hexadecahydrocyclopropa[e]pyrrolo[1,2-a][1,4]diazacyclopentadecin-6-yl)carbamate] | – | – | 0.1 to 0.5 | 0.51 to 1 | – |
| CC[C@@H]1C[C@H](C)CC/C=C\[C@@H]2C[C@@]2(C(=O)NS(=O)(=O)C2(C)CC2)NC(=O)[C@@H]2C[C@@H](Oc3ncc(OC)c4ccc(F)cc34)CN2C(=O)[C@H]1NC(=O)N1CCS(=O)(=O)CC1 [Compound 4283, N-((2R,6S,7R,9R,13aS,14aR,16aS,Z)-7-ethyl-2-((7-fluoro-4-methoxyisoquinolin-1-yl)oxy)-9-methyl-14a-(((1-methylcyclopropyl)sulfonyl)carbamoyl)-5,16-dioxo-1,2,3,5,6,7,8,9,10,11,13a,14,14a,15,16,16a-hexadecahydrocyclopropa[e]pyrrolo[1,2-a][1,4]diazacyclopentadecin-6-yl)thiomorpholine-4-carboxamide 1,1-dioxide] | – | – | 1.01 to 5 | 5.01 to 35 | – |
| CCn1nc(O[C@@H]2C[C@H]3C(=O)N[C@]4(C(=O)NS(=O)(=O)C5(C)CC5)C[C@H]4/C=C\CC[C@@H](C)C[C@@H](C)[C@H](NC(=O)NC(C)(C)C)C(=O)N3C2)c2ccccc2c1=O [Compound 5059, (2R,6S,7R,9R,13aS,14aR,16aS,Z)-6-(3-(tert-butyl)ureido)-2-((3-ethyl-4-oxo-3,4-dihydrophthalazin-1-yl)oxy)-7,9-dimethyl-N-((1-methylcyclopropyl)sulfonyl)-5,16-dioxo-1,2,3,5,6,7,8,9,10,11,13a,14,14a,15,16,16a-hexadecahydrocyclopropa[e]pyrrolo[1,2-a][1,4]diazacyclopentadecine-14a-carboxamide] | – | – | 4.82 to 103 | 4.82 to 103 | – |
| COCCOc1cnc(O[C@@H]2C[C@H]3C(=O)N[C@]4(C(=O)NS(=O)(=O)C5CC5)C[C@H]4/C=C\CC[C@H](C)C[C@@H](C)[C@H](NC(=O)OC4COC4)C(=O)N3C2)c2ccc(OC)cc12 [Compound 1158, oxetan-3-yl ((2R,6S,7R,9S,13aS,14aR,16aS,Z)-14a-((cyclopropylsulfonyl)carbamoyl)-2-((6-methoxy-4-(2-methoxyethoxyl)isoquinolin-1-yl)oxy)-7,9-dimethyl-5,16-dioxo-1,2,3,5,6,7,8,9,10,11,13a,14,14a,15,16,16a-hexadecahydrocyclopropa[e]pyrrolo[1,2-a][1,4]diazacyclopentadecin-6-yl)carbamate] | 4.82 to 103 | 4.82 to 103 | – | – | – |
| CCOc1nnc(O[C@@H]2C[C@H]3C(=O)N[C@]4(C(=O)NS(=O)(=O)C5CC5)C[C@H]4/C=C\CC[C@H](C)C[C@@H](CC)[C@H](NC(=O)OC(C)(C)C)C(=O)N3C2)c2ccccc12 [Compound 5042, tert-butyl ((2R,6S,7R,9S,13aS,14aR,16aS,Z)-14a-((cyclopropylsulfonyl)carbamoyl)-2-((4-ethoxyphthalazin-1-yl)oxy)-7-ethyl-9-methyl-5,16-dioxo-1,2,3,5,6,7,8,9,10,11,13a,14,14a,15,16,16a-hexadecahydrocyclopropa[e]pyrrolo[1,2-a][1,4]diazacyclopentadecin-6-yl)carbamate] | – | – | 4.82 to 103 | 4.82 to 103 | – |
| COc1ccc2c(O[C@@H]3C[C@H]4C(=O)N[C@]5(C(=O)NS(=O)(=O)C6(C)CC6)C[C@H]5/C=C\CC[C@H](C)C[C@@H](C)[C@H](NC(=O)O[C@H](C)C(F)(F)F)C(=O)N4C3)nc(N3CCOCC3)cc2c1 [Compound 3092, (R)-1,1,1-trifluoropropan-2-yl ((2R,6S,7R,9S,13aS,14aR,16aS,Z)-2-((6-methoxy-3-morpholinoisoquinolin-1-yl)oxy)-7,9-dimethyl-14a-(((1-methylcyclopropyl)sulfonyl)carbamoyl)-5,16-dioxo-1,2,3,5,6,7,8,9,10,11,13a,14,14a,15,16,16a-hexadecahydrocyclopropa[e]pyrrolo[1,2-a][1,4]diazacyclopentadecin-6-yl)carbamate] | < 5.46 | < 5.46 | – | – | – |
| COc1ccc2c(O[C@@H]3C[C@H]4C(=O)N[C@]5(C(=O)NS(=O)(=O)C6CC6)C[C@H]5/C=C\CC[C@H](C)C[C@@H](C)[C@H](NC(=O)OC5C[C@@H]6C[C@@H]6C5)C(=O)N4C3)nc(-c3ccc(N4CCOCC4)cc3)cc2c1 (stereo partly drawn) [Compound 5194, (1R,3r,5S)-bicyclo[3.1.0]hexan-3-yl((2R,6S,7R,9S,13aS,14aR,16aS,Z)-14a-((cyclopropylsulfonyl)carbamoyl)-2-((6-methoxy-3-(4-morpholinophenyl)isoquinolin-1-yl)oxy)-7,9-dimethyl-5,16-dioxo-1,2,3,5,6,7,8,9,10,11,13a,14,14a,15,16,16a-hexadecahydrocyclopropa[e]pyrrolo[1,2-a][1,4]diazacyclopentadecin-6-yl)carbamate] | – | – | < 5.46 | < 5.46 | – |
| [2H]C([2H])([2H])C(C)(OC(=O)N[C@@H]1C(=O)N2C[C@H](Oc3nccc4cc(OC(C)C)ccc34)C[C@H]2C(=O)N[C@]2(C(=O)NS(=O)(=O)C3CC3)C[C@H]2/C=C\CC[C@@H](C)C[C@H]1C)C([2H])([2H])[2H] [Compound 5153, 1,1,1,3,3,3-hexadeutero-2-methylpropan-2-yl((2R,6S,7R,9R,13aS,14aR,16aS,Z)-14a-((cyclopropylsulfonyl)carbamoyl)-2-((6-isopropoxyisoquinolin-1-yl)oxy)-7,9-dimethyl-5,16-dioxo-1,2,3,5,6,7,8,9,10,11,13a,14,14a,15,16,16a-hexadecahydrocyclopropa[e]pyrrolo[1,2-a][1,4]diazacyclopentadecin-6-yl)carbamate] | – | – | < 5.46 | < 5.46 | – |
| COc1cc(F)cc2c(O[C@@H]3C[C@H]4C(=O)N[C@]5(C(=O)NS(=O)(=O)C6(C)CC6)C[C@H]5/C=C\CC[C@H](C)C[C@@H](C)[C@H](NC(=O)OC(C)(C)C(F)(F)F)C(=O)N4C3)nccc12 [Compound 3155, 1,1,1-trifluoro-2-methylpropan-2-yl((2R,6S,7R,9S,13aS,14aR,16aS,Z)-2-((7-fluoro-5-methoxyisoquinolin-1-yl)oxy)-7,9-dimethyl-14a-(((1-methylcyclopropyl)sulfonyl)carbamoyl)-5,16-dioxo-1,2,3,5,6,7,8,9,10,11,13a,14,14a,15,16,16a-hexadecahydrocyclopropa[e]pyrrolo[1,2-a][1,4]diazacyclopentadecin-6-yl)carbamate] | 4.82 to 103 | 4.82 to 103 | – | – | – |
